Data set [1] relates to human polymorphnuclear leucocytes (PMN). Briefly: Inhibition of the release of lysosomal β-glucuronidase from human polymorphnuclear leucocytes (PMN) during phagocytosis of zymosan particles. Conditions: in vitro; for IC20: Homo sapiens, Leucocyte, 20% inhibition of release (EC20, not EC50), zymosan-phagocytosis, Fieller confidence limits given. Format: cell-based. As for the experimental part:
The compounds were tested for their inhibitory effect on the release of lyosomal enzymes (β-glucuronidase was the lysomal marker-enzyme) from human polymorphnuclear leucocytes (PMN) during the phagocytosis of zymosan particles. According to WEISSMANN, the release of lyosomal enzymes in the course of the phagocytosis of immune complexes plays a significant role for the "self perpetuation" in rheumatoid arthritis. The test was performed according to the method of WEISSMANN et al. [J. Exp. Med. 134, 149s-165s (1971)]. The buffer system and the incubation times were changed, the number of the zymosan particles and the number of PMN was standardized. From the inhibiting effects produced by the test substance in comparison with the zymosan control, an EC20 with confidence limits according to FIELLER (Quart. J. Pharm. Pharmacol. 17, 117-123 (1944) was calculated by linear regression analysis according to LINDER [Stat. Methoden, 4th Ed., 148-162, published by Birkhauser, Basel, Switzerland (1964)] as the end concentration of the test substance that produced a 20% inhibition of the release of lysosomal β-glucuronidasefrom human polymorphnuclear leucocytes in vitro during the zymosan-phagocytosis.
Effect on the release of lysosomal β-glucuronidase from human polymorph-nucleic leucocytes under zymosan-phagocytosis.

A short description of data set [2]: long-lasting in vivo activity compared with other β-mimetics. As to conditions: no data given.
The nature of another data set: enteral absorption. Format: in vivo. Conditions: no data given.

Several values for one entry are separate records, joined by “and”; a condition that tells them apart may be missing. Equal entries are not always repeated.

Take `CC(C)(C)NCC(O)c1cc(O)cc(O)c1` (centres unmarked) [B, reference compound]: in data set [1], the IC20 was 2.4 µM and 0.658 µg/mL.

On to `CCOC(=O)Nc1c(F)cc(C(O)CNC(C)(C)C)cc1C#N.Cl` (centres unmarked) [Compound A, 1-(4-ethoxycarbonylamino-3-cyano-5-fluoro-phenyl)-2-tert. butylamino-ethanol hydrochloride], for which the IC20 in data set [1] is 130 nM and 0.0468 µg/mL. Also, in data set [1] (relative to terbutaline sulfate (B)), the “stronger inhibitor of the release of lysosomal enzymes than terbutaline sulfate” value is given as “about 18 times stronger”. For the same molecule, the “in vivo activity, duration” value in data set [2] is recorded as “long-lasting”. In the data set “enteral absorption”, the enteral absorption entry is recorded as “very good”.

The IC20 is the concentration needed for an effect of 20%. Lower therefore signals an effect from little substance.

The values above are taken from patent publication US4244967A, “Antiphlogistic pharmaceutical compositions containing a phenylethanolamine and methods of use” (priority 1978, dated 1981).
